Values belong to the compound of their own block, whether it stands above or below them.
Experiments:
[1] = test system: SKOV3 ovarian cancer cells; assay: Cell proliferation, SKOV3; assay type: cell-based; conditions: 96 hours, Cisplatin alone; FIG. 4f
Description: Growth of SKOV3 cell lines were slowed by the treatment with a compound of Formula II at higher doses. Experiment represents 6 biological repetitions, Error=S.E.M.
Cisplatin™ resistant SKOV-3 ovarian cancer cells were sensitised to treatment with a compound of Formula II in combination with 2.5 μM Cisplatin™ (p=0.003) (right hand bar in the figure), no effect is observed from treatment with equivalent levels of a compound of Formula II alone (left hand bar in the figure) or Cisplatin™ alone.
(§1) Prior to treatment cells were cultured to an appropriate confluency in 96 well tissue culture plates (Fisher). Cells remained either supplemented with fresh media or treated with fresh media containing active or an equivalent volume of DMSO (vehicle control). Where used, Cisplatin™ was diluted to a stock concentration in Dimethylformamide (DMF), then handled as per the manufacturer's instructions. To determine relative cell viability, reagents WST-1 (Roche) or MTT (Sigma) were used as per the manufacturer's instructions and absorbance at 450 nm measured using a Victor plate reader (Perkin Elmer).

[2] = test system: primary canine histocytic sarcoma tumour cells; assay: Primary canine tumour cell experiments; assay type: cell-based, dog; conditions: single dose Cisplatin (10 μM), 6 days
Description: Cells were cultured for 6 days with a single dose treatment of Cisplatin™ (10 μM) or a combination of Cisplatin™ plus a compound of Formula II (active). Images were taken after 6 days treatment and are representative of three independently treated wells. Each image (40× magnification) represents the majority of the well area and is of an equivalent area in each photograph.
Known inhibitors of protein synthesis such as hippuristanol have proven potent anti-cancer properties when used in combination with chemotherapeutic agents such as Cisplatin™ or Doxorubicin™. However hippuristanol is naturally found in coral to is scarce and expensive to obtain, furthermore it is very difficult and expensive to synthesise. […] In particular this combination has a potent effect at slowing proliferation or killing cancer cells. Slow growing and difficult to treat tumour cell types such as A549 lung cancer cells, SH-SY5Y neuroblastoma or SKOV-3 cancer cells are all sensitised by exposure to Formula II to very low doses of Cisplatin™ (FIGS. 4d, 4e, 4f and 7)—a complete kill can be achieved in both A549 and SH-SY5Y cells after a single dose treatment with g quantities of a compound of Formula II in combination with 1 μM or 2.5 μM treatments of Cisplatin™. […]

NLGN2 5′UTR = assay: NLGN translation reporter assay, neuroligin 2; assay type: cell-based, human; conditions: equivalent treatment; FIG. 5 and FIG. 10
Description: (§2) The mechanism of action and level of activity of Formula II are consistent with and comparative to a proven translational inhibitor extracted from a rare coral species (Hippuristanol—a proven inhibitor of eIf4A). In this experiment 1 μM of Hippuristanol and 1.3 μM of Formula I was used
(§3) FIG. 10—Compound 46, NLGN Translation reporter assay.
Treatment with the compound of Formula II (and compound 46) (FIG. 5 and FIG. 10) selectively decrease the firefly luciferase signal from a reporter construct containing the NLGN1 5′UTR upstream of a firefly luciferase gene. The translation of luciferase reporters downstream of the NLGN1 5′UTR has been proven to be dependent on the activity of the translation initiation complex eIF4F (Gkogkas et al Nature 2013, 493:371-7)—a complex containing the helicase eIF4A. […]
(§4) Cells were transfected using FuGene 6 (Roche) following the manufacturer's instructions. The activities of firefly and renilla luciferase in lysates prepared from transfected cells were measured using a commercially available Luciferase reporter assay system (Promega) and light emission was measured over a 10 sec interval using a TECAN luminometer. […]

NLGN1 5′UTR = assay: NLGN translation reporter assay, neuroligin 1; assay type: cell-based, human; conditions: FIG. 5: 1 μM Hippuristanol, 1.3 μM compound; FIG. 10: compound 46
Description: as §2, §3
Direct evidence is provided that inhibiting eIF4A represents a new route to treating ASD based on the data presented by Gkogkas et al. Nature 2013, 493:371-7.
Treatment with the compound of Formula II (and compound 46) (FIG. 5 and FIG. 10) selectively decrease the firefly luciferase signal from a reporter construct containing the NLGN1 5′UTR upstream of a firefly luciferase gene. The translation of luciferase reporters downstream of the NLGN1 5′UTR has been proven to be dependent on the activity of the translation initiation complex eIF4F (Gkogkas et al Nature 2013, 493:371-7)—a complex containing the helicase eIF4A. Equivalent treatment had little effect on the signal generated from either a co-transfected renilla luciferase reporter control or cells transfected with an equivalent construct containing the NLGN2 5′UTR upstream of a firefly luciferase gene (FIG. 5 and FIG. 10).
Experiments conducted using Firefly luciferase reporter plasmids containing the 5′ untranslated regions (UTRs) of the genes amyloid precursor protein (APP), thioredoxin (TXN) were conducted with reagents and materials described by Bottley et al, 2010. Experiments conducted using Firefly luciferase reporter plasmids containing the 5′ UTRs of the genes EGFR, BACE1 and Actin were conducted with reagents and materials described by Webb, 2012 (http://etheses.nottingham.ac.uk/2724/). […]
as §4

[3] = test system: A549 lung carcinoma cells; assay: Cell proliferation, A549 (WST-1 / MTT); assay type: cell-based; conditions: for sensitisation of A549 cells to low dose cisplatin: range of doses with range of doses of Cisplatin, FIG. 14; for sensitisation of A549 cells to low dose cisplatin / growth of A549 cells: 96 hrs; for growth of A549 cells: range of doses, dose dependant manner, FIG. 13
Description: Cisplatin™ resistant A549 lung cancer cells were sensitised to treatment with a compound of Formula II in combination with 1 μM Cisplatin™—a complete kill is achieved at higher doses of a compound of Formula II.
Cells were treated with a range of doses of active for either 48 or 96 hrs. Each data point is representaive of at least 4 biological repetitions.
Cells were treated with either 2 μM Cisplatin™ alone, c. 1 μg active alone or c. 1 μg active in combination with 2 μM Cisplatin™. A WST-1 cell proliferation assay was performed 96 hrs after treatment. Experiment represents 4 independent biological repetitions.
A WST-1 cell proliferation assay was performed 72 hrs after treatment. Experiment represents 4 independent biological repetitions.
Cells were treated with either 2 μM or 10 μM Cisplatin™ alone, or 10 μg synthetic molecule Formula II in combination with 2 μM Cisplatin™. A WST-1 cell proliferation assay was performed 72 hrs after treatment. Experiment represents 4 independent biological repetitions. A 5-fold increase in the efficacy of Cisplatin™ is observed when treated in combination with the synthetic Formula II.
Cells were treated with either 2 μM, 5 μM or 10 μM Cisplatin™ alone, 50 μg synthetic acetyl derivative molecule or 30 μg in combination with 2 μM Cisplatin™. A WST-1 cell proliferation assay was performed 72 hrs after treatment. Experiment represents four independent biological repetitions. No effect was detected after treatment with 50 μg synthetic acetyl derivative, however an 8-fold increase in the efficacy of Cisplatin™ is observed when treated in combination with 30 μg synthetic acetyl derivative and […] Cisplatin™.
FIG. 11—Natural molecule plus cisplatin compared to Hippuristanol plus cisplatin. […] The ratio between anti-proliferative activity to chemo sensitizing activity is also equivalent.
FIG. 13—Dose curves of compounds 46, 99 and 123. […] Cells were treated with a range of doses of active for 96 hrs. Each data point is representative of at least 4 biological repetitions and error=s.e.m).
FIG. 14—Cisplatin™ combination experiments—Compounds 46, 99 and 123. […] Cells were treated with a range of doses of active in combination with a range of doses of Cisplatin™ for 96 hrs. Each data point is representative of at least 4 biological repetitions and error=s.e.m).
as §1

three Gag isoforms = conditions: increasing amounts, dose-response; cited from earlier work
[4] = test system: firefly luciferase translation reporter; assay: Firefly luciferase translation reporter assay; assay type: cell-based, human; conditions: Hippuristanol (1 μM) alone, 4 hrs; FIG. 3c
Excerpt: Graphs represent 4 biological repetitions per treatment—2 independent treatments of a compound of Formula II.
Graphs represent 4 biological repetitions per treatment. […] No difference is observed between Hippuristanol and Hippuristanol plus a compound of Formula II.
The degree of translation inhibition is shown to be equivalent to that of a known inhibitor of translation, hippuristanol (FIGS. 3b and 5). Comparative structured 5′UTR firefly luciferase reporter experiments conducted using either hippuristanol or a compound of Formula II show the inhibition of reporter levels is equivalent.
Cells were transfected using FuGene 6 (Roche) following the manufacturer's instructions. The activities of firefly and renilla luciferase in lysates prepared from transfected cells were measured using a commercially available Luciferase reporter assay system (Promega) and light emission was measured over a 10 sec interval using a TECAN luminometer. For each experiment described, data was obtained from a minimum of at least 3 biological repetitions per treatment.

HCMV = conditions: cited from earlier work

Compound: N.N.[Cl][Pt][Cl] [Cisplatin, cis-diamminedichloroplatinum(II), reference compound]
effect on SKOV-3 cells, Cisplatin alone [1]: no effect
canine tumour cells after Cisplatin only [2]: many cancer cells remain

signal of NLGN2 5′UTR firefly luciferase reporter (NLGN2 5′UTR): little effect
translation of NLGN1 5′UTR firefly luciferase reporter relative to neuroligin 2 (NLGN1 5′UTR): selectively inhibits the translation
Compound: CC/C=C\C/C=C\C/C=C\CCCCCCCC(=O)OCC(COC(=O)CCCCCCC/C=C\C/C=C\C/C=C\CC)CO[C@@H]1O[C@H](CO)[C@H](O)[C@H](O)[C@H]1O [Compound 46]
sensitisation of A549 cells to low dose cisplatin [3]: sensitizes
growth of A549 cells [3]: inhibits the growth

Compound: CC/C=C\C/C=C\C/C=C\CCCCCCCC(=O)OCC(COC(=O)CCCCCCC/C=C\C/C=C\C/C=C\CC)CO[C@@H]1O[C@H](CO)[C@@H](O)[C@H](O)[C@H]1O [Compound 99]
sensitisation of A549 cells to low dose cisplatin [3]: sensitizes
growth of A549 cells [3]: inhibits the growth

Compound: CC/C=C\C/C=C\C/C=C\CCCCCCCC(=O)OC[C@H](CO[C@H]1O[C@H](CO)[C@@H](O)[C@H](O)[C@H]1O)OC(=O)CCCCCCC/C=C\C/C=C\C/C=C\CC [Compound 123]
sensitisation of A549 cells to low dose cisplatin [3]: sensitizes
growth of A549 cells [3]: inhibits the growth

Compound: C[C@H]1C[C@@]2(O[C@H]3C[C@H]4[C@@H]5CC[C@H]6C[C@H](O)CC[C@]6(C)[C@H]5[C@@H](O)C[C@]4(C)[C@H]3[C@@]2(C)O)OC1(C)C [Hippuristanol, reference compound]
translation of the three Gag isoforms (three Gag isoforms): inhibits the translation of the three Gag isoforms
translation of NLGN1 5′UTR firefly luciferase reporter relative to neuroligin 2 (NLGN1 5′UTR): selective inhibition
inhibition of translation reporter [4]: significant inhibition
anti-proliferative activity on A549 cells ([3]; alone, FIG. 11): anti-proliferative

Compound: CC(/C=C/C(C)=C/[C@@H]1Cc2nc(cs2)[C@@H](C)C[C@@H](N)CC(=O)O[C@@H](C)C/C(C)=C/C=C\C(=O)O1)=C\CN(C)C [Pateamine A]
replication of HCMV (HCMV): inhibits the replication of HCMV

Compound: CC/C=C\C/C=C\C/C=C\CCCCCCCC(=O)OC[C@H](COC1OC(COC(C)=O)C(OC(C)=O)C(OC(C)=O)C1OC(C)=O)OC(=O)CCCCCCC/C=C\C/C=C\C/C=C\CC (some centres unmarked) [acetyl derivative of Formula II]
increase in the efficacy of Cisplatin ([3]; 30 μg plus 2 μM Cisplatin, WST-1, 72 hrs, FIG. 9c): 8 fold
effect on A549 cells, compound alone ([3]; 50 μg alone, WST-1, 72 hrs, FIG. 9c): No effect

Reference: patent US11248016B2, “Glycolipids and pharmaceutical compositions thereof for use in therapy” (THE UNIVERSITY OF NOTTINGHAM, priority 2014, dated 2022)
